IC50 data for 16 molecules are collected here from ChEMBL document CHEMBL4184247, “Development of a series of novel o-phenylenediamine-based indoleamine 2,3-dioxygenase 1 (IDO1) inhibitors” (Bioorg Med Chem Lett, 2018).

The target of the assay is Indoleamine 2,3-dioxygenase 1 (Homo sapiens, UniProt P14902). The assay can be described thus: Inhibition of IDO1 in IFN-gamma stimulated human HeLa cells assessed as inhibition of kynurenine production pre-incubated for 1 hr followed by IFN-gamma addition and measured after 18 hrs. It is filed as cell-based.
Chain of Indoleamine 2,3-dioxygenase 1 (P14902 whole entry): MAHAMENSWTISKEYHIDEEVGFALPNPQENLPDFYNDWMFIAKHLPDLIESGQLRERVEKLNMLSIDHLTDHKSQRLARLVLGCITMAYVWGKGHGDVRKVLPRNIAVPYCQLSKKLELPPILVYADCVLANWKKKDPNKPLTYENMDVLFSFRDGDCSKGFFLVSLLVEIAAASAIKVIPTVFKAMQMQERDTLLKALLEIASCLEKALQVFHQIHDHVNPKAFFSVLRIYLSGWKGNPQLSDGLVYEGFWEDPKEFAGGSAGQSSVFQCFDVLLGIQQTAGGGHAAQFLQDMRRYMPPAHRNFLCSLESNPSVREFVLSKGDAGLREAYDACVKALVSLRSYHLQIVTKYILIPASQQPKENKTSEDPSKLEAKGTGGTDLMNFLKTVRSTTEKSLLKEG
Usually IC50 stands for the concentration needed to halve the response being measured. As to `Cc1ccc(NC(=O)Nc2cc(-c3cccc(C(=O)O)c3)ccc2Oc2ccccc2C(C)(C)C)cc1`, the IC50 is > 1000 nM. As to `CCCCN(CCCC)c1ccc(-c2ccccc2C(=O)O)cc1NC(=O)Nc1ccc(C)cc1`, the half-inhibitory concentration (IC50) stood at 45 nM. Regarding `Cc1ccc(NC(=O)Nc2cc(-c3ccc(C(=O)O)cc3)ccc2Oc2ccccc2C(C)(C)C)cc1`, the IC50 was > 1000 nM. Consider `Cc1ccc(NC(=O)Nc2cc(-c3ccccc3NS(C)(=O)=O)ccc2N(CC(C)C)CC(C)C)cc1`, for which the IC50 was > 1000 nM.

Turning to `COCCN(CCOC)c1ccc(-c2ccccc2C(=O)O)cc1NC(=O)Nc1ccc(C)cc1`, the IC50 was > 1000 nM. `Cc1ccc(NC(=O)Nc2cc(-c3ccccc3-c3nnn[nH]3)ccc2N(CC(C)C)CC(C)C)cc1`: the concentration for half-maximal inhibition (IC50) was 4 nM. Turning to `Cc1ccc(NC(=O)Nc2cc(-c3ccccc3C(=O)NS(=O)(=O)C(F)(F)F)ccc2N(CC(C)C)CC(C)C)cc1`, the IC50 was > 1000 nM. For `Cc1ccc(N2CCN(c3cc(-c4ccccc4-c4nnn[nH]4)ccc3N(CC(C)C)CC(C)C)C2=O)cc1`, the IC50 came to 28 nM. `CCN(c1ccc(-c2ccccc2C(=O)O)cc1NC(=O)Nc1ccc(C)cc1)C1CCCC1`: the concentration for half-maximal inhibition (IC50) was determined as 23 nM.

`Cc1ccc(NC(=O)Nc2cc(-c3ccccc3C(=O)O)ccc2N(CC(C)C)C(C)C)cc1`: the IC50 was found to be 42 nM.

As for `Cc1ccc(NC(=O)Nc2cc(-c3ccccc3NS(=O)(=O)C(F)(F)F)ccc2N(CC(C)C)CC(C)C)cc1`, the IC50 worked out at 76 nM. For `Cc1ccc(NC(=O)N(C)c2cc(-c3ccccc3-c3nnn[nH]3)ccc2N(CC(C)C)CC(C)C)cc1`, the IC50 was determined as 97 nM.

For the molecule `Cc1ccc(NC(=O)Nc2cc(-c3ccccc3C(=O)O)ccc2N(C)C2CCCCC2)cc1`, the half-maximal inhibitory concentration (IC50) was determined as 14 nM.

Regarding `Cc1ccc(NC(=O)Nc2cc(-c3ccccc3C(=O)O)ccc2N(C)c2ccccc2C(C)(C)C)cc1`, the half-maximal inhibitory concentration (IC50) was > 1000 nM. Regarding `Cc1ccc(N(C)C(=O)Nc2cc(-c3ccccc3-c3nnn[nH]3)ccc2N(CC(C)C)CC(C)C)cc1`, the concentration for half-maximal inhibition (IC50) came to 405 nM.

As for `Cc1ccc(NC(=O)Nc2cc(-c3ccccc3C(=O)O)ccc2N(CC(C)C)CC(C)C)cc1`, the half-inhibitory concentration (IC50) was 13 nM.
